This note sets out measurements from patent publication US7541367B2, “3-benzoimidazolyl-pyrazolopyridines useful in treating kinase disorders” (Janssen Pharmaceutica, N.V., priority 2005, dated 2009).

The structures appear in SMILES notation.

Experiment [1] addresses T1, Aurora-A (Mus musculus, UniProt P97477).
T1 construct: polyhistidine (N)
T1 sequence (P97477 1-395): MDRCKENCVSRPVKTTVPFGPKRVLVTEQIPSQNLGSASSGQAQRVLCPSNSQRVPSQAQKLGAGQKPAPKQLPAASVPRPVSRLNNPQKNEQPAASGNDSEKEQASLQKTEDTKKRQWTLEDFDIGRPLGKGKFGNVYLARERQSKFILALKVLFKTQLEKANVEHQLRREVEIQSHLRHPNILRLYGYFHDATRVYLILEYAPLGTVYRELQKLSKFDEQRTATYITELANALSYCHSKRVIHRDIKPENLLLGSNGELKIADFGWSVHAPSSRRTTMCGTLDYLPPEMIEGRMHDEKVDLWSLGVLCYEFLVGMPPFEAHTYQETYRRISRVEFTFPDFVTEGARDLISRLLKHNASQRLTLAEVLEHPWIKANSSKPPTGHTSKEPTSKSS
Put plainly: Aurora-A kinase screening assay (33P-ATP FlashPlate).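 Also: His-tagged mouse Aurora-A phosphorylating a biotinylated peptide captured on streptavidin plates, read as 33P uptake by scintillation counting, 1% DMSO, inhibition scaled between per-plate maximum and minimum signals.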 The format is biochemical. Conditions: 10 μM ATP, 1 hr at 30° C.

Experiment [2] deals with T2, RET (Homo sapiens, UniProt P07949).
T2 construct: polyhistidine (N)
T2 sequence (P07949 658-1114 limits assumed): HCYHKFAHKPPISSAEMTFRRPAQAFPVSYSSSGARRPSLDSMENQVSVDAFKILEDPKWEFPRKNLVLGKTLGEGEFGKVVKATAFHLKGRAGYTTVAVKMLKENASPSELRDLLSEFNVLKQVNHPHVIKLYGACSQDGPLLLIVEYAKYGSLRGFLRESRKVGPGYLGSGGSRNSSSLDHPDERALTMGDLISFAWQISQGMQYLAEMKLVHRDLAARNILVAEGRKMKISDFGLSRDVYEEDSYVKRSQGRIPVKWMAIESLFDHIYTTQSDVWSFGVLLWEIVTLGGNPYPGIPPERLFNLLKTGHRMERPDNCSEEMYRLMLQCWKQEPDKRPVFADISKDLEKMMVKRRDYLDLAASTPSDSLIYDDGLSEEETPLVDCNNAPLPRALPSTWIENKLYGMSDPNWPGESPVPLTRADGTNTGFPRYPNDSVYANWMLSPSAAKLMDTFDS
Put plainly: RET kinase screening assay (33P-ATP FlashPlate).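 Also: biotinylated peptide substrate captured on streptavidin FlashPlate, 33P phosphate transfer read by scintillation counting, 1% DMSO, lower incorporation means inhibition, percent relative to per-plate maximum and minimum signals.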 The format is biochemical. Conditions: human RET kinase domain; 10 μM ATP; 1 hr at 30° C.

The target in experiment [3] is T3, VEGF-R2 (Rattus norvegicus, UniProt O08775).
T3 construct: polyhistidine (N)
Put plainly: VEGF-R2 kinase screening assay (33P-ATP FlashPlate).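 Also: Read-out is ³³P incorporation from ³³P-γ-ATP into biotinylated peptide substrate captured on streptavidin FlashPlate, counted by scintillation, 1% DMSO final, inhibition scaled between per-plate maximum and minimum signals.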 Conditions: rat VEGF-R2 kinase domain; 10 μM ATP; 1 hr at 30° C. The class given is biochemical.

Experiment [4] relates to HeLa cervical adenocarcinoma. Put plainly: Cell Proliferation Inhibition Assay (14C-thymidine incorporation), HeLa.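 Also: test compound in DMSO added to cells seeded in scintillating 96-well plates, DMSO-only wells as control, uptake of methyl 14C-thymidine into new DNA counted.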 The class given is cell-based. The conditions noted are these: Homo sapiens, HeLa, HeLa cells.
The target in experiment [5] is T4, CDK1 (Homo sapiens, UniProt P06493).
T4 construct: purchased New England Biolabs, Beverly, Mass; 6020; host or cells: insect cells
Put plainly: CDK-1 kinase screening assay (33P-ATP FlashPlate). The conditions noted are these: human CDK1 with cyclin B; 10 μM ATP; 1 hr at 30° C. The format is biochemical.

Experiment [6] concerns the target T5, c-Src kinase (Homo sapiens, UniProt P12931).
T5 construct: purchased Upstate Biotechnology, Lake Placid, N.Y
Put plainly: c-Src Kinase Assay. The conditions noted are these: 5 μM ATP. The format is biochemical. In a few lines:
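Human c-Src phosphorylated Cdc2 peptide (100 μM) […]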

In experiment [7] the target is T6, HER2 (Homo sapiens, UniProt P04626).
T6 construct: GST (Glutathione-S-Transferase) (N); HIS6 (N); thrombin cleavage site (N); purchased Proqinase, Freiburg, Germany
Put plainly: HER2 kinase screening assay (33P-ATP FlashPlate).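 Also: Biotin-poly(GT) 4:1 peptide captured on streptavidin FlashPlate, 33P transfer from γ-ATP read by scintillation counting, lower incorporation means inhibition, 1% DMSO final, 100 µL reaction.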 The format is biochemical. Conditions: GST-HIS6 HER-2 aa 679 to 1255; 10 μM ATP; 1 hr at 30° C.

In experiment [8] the test system is HCT-116 colon carcinoma. Put plainly: Cell Proliferation Inhibition Assay (14C-thymidine incorporation), HCT-116.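 Also: proliferation measured as methyl 14C-thymidine uptake into new DNA, counted in 96-well scintillating microplates, compared with DMSO-only control wells.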 The format is cell-based. The conditions noted are these: Homo sapiens, HCT-116, HCT-116 cells. A general note: Dividing cells build labelled thymidine or BrdU into new DNA.
Experiment [9] has as its system A375 malignant melanoma. Put plainly: Cell Proliferation Inhibition Assay (14C-thymidine incorporation), A375.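 Also: proliferation measured by radiolabelled thymidine uptake into new DNA, counted in scintillating 96-well plates, compound-treated wells compared with DMSO-only control wells.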 The class given is cell-based. Conditions: Homo sapiens, A-375, A375 cells.
In experiment [10] the target is T7, Lyn kinase (Homo sapiens, UniProt P07948).
T7 construct: purchased Upstate Biotechnology, Lake Placid, N.Y
Put plainly: Lyn Kinase Assay. The format is biochemical. The conditions noted are these: 5 μM ATP. The protocol: Test compound in 100% DMSO (0.5 μL) was added to the appropriate wells. Diluted Lyn kinase (human) (Accession Number EMBL M16038) (Upstate Biotechnology, Lake Placid, N.Y.) (diluted in a buffer consisting of 50 mM Tris at pH 7.5, 0.1 mM EGTA, Sodium Vanadate (0.1 mM), β-mercaptoethanol (0.1%) and 1 mg/mL bovine serum albumin) (2.5 μL) was added to the wells to initiate the reactions.
The reaction plates were incubated at 30° C. for 40 min. The reaction was terminated by the addition of a 3% phosphoric acid solution (5 μL). The reaction product (10 μL) was spotted onto a P30 filtermat and washed for 5 minutes in phosphoric acid (75 mM). The wash sequence was repeated two more times, followed with one final wash in methanol. The plates were then dried, sealed and read on the TopCount scintillation counter after adding 30 μL scintillation fluid.
A maximum and minimum signal for the assay was determined on each plate. The percent inhibition of a test compound was calculated according to the formula: […]
For a series of test concentrations, the IC50 was derived by graphing percent inhibition against the log of the concentrations tested for a given compound with results shown in Table 3
For compounds with multiple values, each value represents a separate assay result.

T5 sequence (P12931 whole entry): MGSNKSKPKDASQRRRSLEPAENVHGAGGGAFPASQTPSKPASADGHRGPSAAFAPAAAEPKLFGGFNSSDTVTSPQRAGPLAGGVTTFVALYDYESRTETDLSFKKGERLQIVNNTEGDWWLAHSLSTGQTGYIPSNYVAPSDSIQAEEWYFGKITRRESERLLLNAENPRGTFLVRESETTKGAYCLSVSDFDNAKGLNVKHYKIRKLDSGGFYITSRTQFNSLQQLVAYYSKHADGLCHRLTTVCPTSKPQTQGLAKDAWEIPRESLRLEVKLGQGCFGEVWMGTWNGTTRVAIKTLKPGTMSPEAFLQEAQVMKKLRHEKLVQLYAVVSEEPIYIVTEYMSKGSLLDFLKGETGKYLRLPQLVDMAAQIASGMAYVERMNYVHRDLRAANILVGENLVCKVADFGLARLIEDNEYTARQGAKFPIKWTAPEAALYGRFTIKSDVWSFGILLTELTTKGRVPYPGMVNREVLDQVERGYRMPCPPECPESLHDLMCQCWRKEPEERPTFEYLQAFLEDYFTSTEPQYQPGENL
T7 sequence (P07948 whole entry): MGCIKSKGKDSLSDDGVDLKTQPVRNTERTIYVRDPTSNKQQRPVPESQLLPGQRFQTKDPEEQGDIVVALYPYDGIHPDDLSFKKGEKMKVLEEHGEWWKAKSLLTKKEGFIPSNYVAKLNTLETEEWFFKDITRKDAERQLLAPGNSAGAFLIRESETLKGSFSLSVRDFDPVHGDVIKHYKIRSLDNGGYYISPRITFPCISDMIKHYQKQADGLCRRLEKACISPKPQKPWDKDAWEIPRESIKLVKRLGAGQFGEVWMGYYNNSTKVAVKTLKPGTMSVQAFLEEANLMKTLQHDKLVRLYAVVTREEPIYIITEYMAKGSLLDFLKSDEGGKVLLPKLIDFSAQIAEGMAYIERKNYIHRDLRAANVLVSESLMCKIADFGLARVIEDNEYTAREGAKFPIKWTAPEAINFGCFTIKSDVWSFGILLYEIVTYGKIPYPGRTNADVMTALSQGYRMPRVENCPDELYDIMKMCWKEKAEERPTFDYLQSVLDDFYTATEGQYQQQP
T6 sequence (P04626 679-1255): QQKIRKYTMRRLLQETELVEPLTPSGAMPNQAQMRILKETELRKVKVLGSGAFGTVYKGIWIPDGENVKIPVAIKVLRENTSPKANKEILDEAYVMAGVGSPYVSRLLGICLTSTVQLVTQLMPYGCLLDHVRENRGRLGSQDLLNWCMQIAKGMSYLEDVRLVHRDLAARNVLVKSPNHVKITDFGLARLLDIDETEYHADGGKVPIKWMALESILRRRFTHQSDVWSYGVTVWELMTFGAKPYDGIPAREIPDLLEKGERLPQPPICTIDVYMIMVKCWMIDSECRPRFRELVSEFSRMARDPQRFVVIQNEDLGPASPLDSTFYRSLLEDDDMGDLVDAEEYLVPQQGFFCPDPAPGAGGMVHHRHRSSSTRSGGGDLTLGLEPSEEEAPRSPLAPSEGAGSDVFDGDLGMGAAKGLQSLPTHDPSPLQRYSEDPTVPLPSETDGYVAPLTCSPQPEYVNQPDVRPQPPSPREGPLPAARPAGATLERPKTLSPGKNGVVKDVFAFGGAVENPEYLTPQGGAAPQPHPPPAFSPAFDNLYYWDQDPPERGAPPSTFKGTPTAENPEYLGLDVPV
T4 sequence (P06493 whole entry): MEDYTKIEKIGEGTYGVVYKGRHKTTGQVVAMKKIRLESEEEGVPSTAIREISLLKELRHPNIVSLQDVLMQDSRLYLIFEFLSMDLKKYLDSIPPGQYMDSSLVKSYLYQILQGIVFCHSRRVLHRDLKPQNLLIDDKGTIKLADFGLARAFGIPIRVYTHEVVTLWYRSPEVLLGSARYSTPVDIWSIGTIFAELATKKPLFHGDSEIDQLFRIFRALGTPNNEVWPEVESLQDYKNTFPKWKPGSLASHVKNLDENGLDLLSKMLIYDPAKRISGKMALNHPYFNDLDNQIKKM
T4 sequence (P14635 whole entry partner): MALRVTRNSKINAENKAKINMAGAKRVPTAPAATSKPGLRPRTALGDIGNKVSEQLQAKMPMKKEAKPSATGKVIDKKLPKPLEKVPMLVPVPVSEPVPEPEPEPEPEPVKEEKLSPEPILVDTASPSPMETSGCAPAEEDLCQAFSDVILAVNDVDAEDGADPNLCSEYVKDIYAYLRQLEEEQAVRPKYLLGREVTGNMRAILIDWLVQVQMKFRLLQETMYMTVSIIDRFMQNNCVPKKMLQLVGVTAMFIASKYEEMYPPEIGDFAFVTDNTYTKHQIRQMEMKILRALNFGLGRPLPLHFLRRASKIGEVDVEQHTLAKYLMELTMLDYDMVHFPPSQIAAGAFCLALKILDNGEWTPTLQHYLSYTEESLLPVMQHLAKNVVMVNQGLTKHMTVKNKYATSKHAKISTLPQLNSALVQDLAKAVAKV
T3 sequence (O08775 786-1343): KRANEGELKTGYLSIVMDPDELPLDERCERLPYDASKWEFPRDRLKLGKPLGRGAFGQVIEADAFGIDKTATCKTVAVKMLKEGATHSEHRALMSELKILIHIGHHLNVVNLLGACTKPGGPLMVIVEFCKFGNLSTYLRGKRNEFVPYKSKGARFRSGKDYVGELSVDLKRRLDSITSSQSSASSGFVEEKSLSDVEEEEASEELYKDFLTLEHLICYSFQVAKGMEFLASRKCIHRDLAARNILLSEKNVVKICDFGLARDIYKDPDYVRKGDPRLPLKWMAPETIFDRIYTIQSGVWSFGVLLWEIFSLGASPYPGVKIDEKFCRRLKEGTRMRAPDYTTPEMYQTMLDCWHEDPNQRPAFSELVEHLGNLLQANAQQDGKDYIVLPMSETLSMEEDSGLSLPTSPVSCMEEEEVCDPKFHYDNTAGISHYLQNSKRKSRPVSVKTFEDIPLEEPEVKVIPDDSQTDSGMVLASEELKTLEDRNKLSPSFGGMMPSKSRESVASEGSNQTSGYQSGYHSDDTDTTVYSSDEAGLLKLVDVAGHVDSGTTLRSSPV

On to `NC1CCC(NC(=O)c2cccc3[nH]c(-c4n[nH]c5ncc(-c6cncc7ccccc67)cc45)nc23)CC1` (stereo not shown) [Cpd 45, 2-(5-isoquinolin-4-yl-1H-pyrazolo[3,4-b]pyridin-3-yl)-1H-benzoimidazole-4-carboxylic acid (4-amino-cyclohexyl)-amide], for which the IC50 is 40 nM in experiment [1]; above 100000 nM in experiment [2]; above 100 nM in experiment [3]; 7520 nM in experiment [4]; 34.9 nM in [5]; 0.653 nM in experiment [6]. Moreover, the IC50 is 31000 nM in [7], above 10000 nM in experiment [8], 28500 nM in experiment [9] and 1.33 nM in experiment [10].

For `COCc1cccc2[nH]c(-c3n[nH]c4ncc(-c5cncc(OC)c5)cc34)nc12` [Cpd 64, 3-(4-methoxymethyl-1H-benzoimidazol-2-yl)-5-(5-methoxy-pyridin-3-yl)-1H-pyrazolo[3,4-b]pyridine], the IC50 is around 10000 nM in [1]; above 100000 nM in experiment [2]; 160 nM in experiment [3]; 1570 nM in [4]; 80.3 nM in experiment [5]; 621 nM in [6]. For the same compound, the 50% inhibitory concentration (IC50) in [7] is above 100000 nM; in [8], 26.1 nM; in [9] it was 11.3 nM; in experiment [10], 4060 nM.

`O=C(Nc1cccnc1)c1cccc2[nH]c(-c3n[nH]c4ncc(-c5cncc6ccccc56)cc34)nc12` [Cpd 48, 2-(5-isoquinolin-4-yl-1H-pyrazolo[3,4-b]pyridin-3-yl)-1H-benzoimidazole-4-carboxylic acid pyridin-3-ylamide]: the IC50 in experiment [1] is around 1000 nM; in experiment [2] it was above 10000 nM; in experiment [3] it was around 10 nM; in experiment [4], 300 nM; in [5] it was 18.5 nM; in experiment [6], 5 nM. For the same compound, the 50% inhibitory concentration (IC50) in experiment [7] is above 100000 nM; in experiment [8] it was 488 nM; in experiment [9] it was 188 nM; in experiment [10], 23.6 nM.

On to `COCc1cccc2[nH]c(-c3n[nH]c4ncc(-c5ccncc5)cc34)nc12` [Cpd 65, 3-(4-methoxymethyl-1H-benzoimidazol-2-yl)-5-pyridin-4-yl-1H-pyrazolo[3,4-b]pyridine], for which the IC50 was above 1000 nM in experiment [1]; above 100000 nM in experiment [2]; 115 nM in experiment [3]; 3090 nM in [4]; above 1000 nM in [5]; 315 nM in experiment [6]. Also, the IC50 is above 100000 nM in experiment [7], 62 nM in experiment [8], 22.6 nM in [9] and 277 nM in experiment [10].

With `COCc1cccc2[nH]c(-c3n[nH]c4ncc(-c5cncc(CNC(C)C)c5)cc34)nc12` [Cpd 43, isopropyl-{5-[3-(4-methoxymethyl-1H-benzoimidazol-2-yl)-1H-pyrazolo[3,4-b]pyridin-5-yl]-pyridin-3-ylmethyl}-amine], the concentration for half-maximal inhibition (IC50) amounted to 6580 nM in experiment [1]; 2230 nM in experiment [2]; 683 nM in experiment [3]; 180 nM in [4]; 29.1 nM in experiment [5]; 836 nM in [6]. For the same compound, the half-maximal inhibitory concentration (IC50) was above 10000 nM in experiment [7], 131 nM in experiment [8], 166 nM in experiment [9] and 132 nM in experiment [10].

With `COCc1cccc2[nH]c(-c3n[nH]c4ncc(-c5cncc(C=NO)c5)cc34)nc12` [Cpd 72, 5-[3-(4-methoxymethyl-1H-benzoimidazol-2-yl)-1H-pyrazolo[3,4-b]pyridin-5-yl]-pyridine-3-carbaldehyde oxime], the IC50 was above 10000 nM in experiment [1]; above 100000 nM in experiment [2]; above 100000 nM in experiment [3]; 640 nM in [4]; 23.6 nM in [5]; 375 nM in [6]. Also, the IC50 in experiment [7] is above 100000 nM; in experiment [8], 29.2 nM; in experiment [9] it was 10.2 nM; in experiment [10], 1050 nM.

On to `COCc1cccc2[nH]c(-c3n[nH]c4ncc(-c5cncc(CNC6CCN(C)CC6)c5)cc34)nc12` [Cpd 80, {5-[3-(4-methoxymethyl-1H-benzoimidazol-2-yl)-1H-pyrazolo[3,4-b]pyridin-5-yl]-pyridin-3-ylmethyl}-(1-methyl-piperidin-4-yl)-amine], for which the IC50 is above 10000 nM in experiment [1]; above 100000 nM in [2]; 2080 nM in experiment [3]; above 10000 nM in experiment [4]; 875 nM in [5]; 211 nM in [6]. Besides, the IC50 in experiment [7] was above 100000 nM; in experiment [8], 2310 nM; in experiment [9], 397 nM; in experiment [10], 192 nM.

Consider `COCc1cccc2[nH]c(-c3n[nH]c4ncc(-c5ccc(F)nc5)cc34)nc12` [Cpd 71, 5-(6-fluoro-pyridin-3-yl)-3-(4-methoxymethyl-1H-benzoimidazol-2-yl)-1H-pyrazolo[3,4-b]pyridine], for which the IC50 was above 10000 nM in experiment [1]; above 100000 nM in experiment [2]; around 1000 nM in experiment [3]; 2260 nM in experiment [4]; 375 nM in [5]; 278 nM in [6]. Further, the IC50 is above 100000 nM in experiment [7], 283 nM in [8], 150 nM in [9] and 9010 nM in [10].

`CCN(CC)Cc1cccc2[nH]c(-c3n[nH]c4ncc(-c5cccnc5)cc34)nc12` [Cpd 52, diethyl-[2-(5-pyridin-3-yl-1H-pyrazolo[3,4-b]pyridin-3-yl)-1H-benzoimidazol-4-ylmethyl]-amine]: the IC50 in [1] is 3620 nM; in experiment [2], around 10000 nM; in experiment [3], 1030 nM; in experiment [4], 454 nM; in experiment [5] it was 24.6 nM; in experiment [6], 570 nM. The IC50 is above 100000 nM in experiment [7], 345 nM in experiment [8], 247 nM in experiment [9] and 299 nM in experiment [10].

As for `CN1CCN(c2ccc3[nH]c(-c4n[nH]c5ncc(-c6cncc(CN7CCOCC7)c6)cc45)nc3c2)CC1` [Cpd 84, 3-[5-(4-methyl-piperazin-1-yl)-1H-benzoimidazol-2-yl]-5-(5-morpholin-4-ylmethyl-pyridin-3-yl)-1H-pyrazolo[3,4-b]pyridine], the IC50 in experiment [1] is 87.3 nM; in experiment [2], above 1000 nM; in experiment [3], around 100 nM; in [4], 1880 nM; in experiment [5] it was 32.2 nM; in [6] it was 5.18 nM. Also, the IC50 came to 1850 nM in [7], 739 nM in [8], 2530 nM in [9] and 9.65 nM in experiment [10].

As a reminder, the IC50 is the concentration at which inhibition is half-maximal. A high value points to a need for much substance.
